Source: PubChem BioAssay (NCI)
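In this assay, cells in 96-well plates receive the compound at five concentrations for 48 hours. Endpoints are linearly interpolated between the surrounding concentrations. GI50 = concentration required for 50% inhibition of growth. The concentration for full growth arrest is given as TGI.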

Key:
Assay in all cases: DTP human tumour cell line panel, 48 h
A549 NSCLC = test system: A549 NSCLC
SNB-75 CNS = test system: SNB-75 CNS
OVCAR-3 ovarian = test system: OVCAR-3 ovarian
SNB-19 CNS = test system: SNB-19 CNS
RXF 393 renal = test system: RXF 393 renal
UO-31 renal = test system: UO-31 renal
SR leukemia = test system: SR leukemia
CCRF-CEM leukemia = test system: CCRF-CEM leukemia
HCT-15 colon = test system: HCT-15 colon
CAKI-1 renal = test system: CAKI-1 renal

Row | Structure (SMILES) | GI50 (A549 NSCLC) [µM] | TGI (A549 NSCLC) [µM] | GI50 (SNB-75 CNS) [µM] | TGI (SNB-75 CNS) [µM] | GI50 (OVCAR-3 ovarian) [µM] | TGI (OVCAR-3 ovarian) [µM] | GI50 (SNB-19 CNS) [µM] | TGI (SNB-19 CNS) [µM] | GI50 (RXF 393 renal) [µM] | TGI (RXF 393 renal) [µM] | GI50 (UO-31 renal) [µM] | TGI (UO-31 renal) [µM] | GI50 (SR leukemia) [µM] | TGI (SR leukemia) [µM] | GI50 (CCRF-CEM leukemia) [µM] | TGI (CCRF-CEM leukemia) [µM] | GI50 (HCT-15 colon) [µM] | TGI (HCT-15 colon) [µM] | GI50 (CAKI-1 renal) [µM] | TGI (CAKI-1 renal) [µM]
1 | O=C(Nc1ccc(Cl)c(Cl)c1)NS(=O)(=O)c1cnccc1Oc1ccc(F)cc1 | 9.92 | 52 | 3.85 | > 100 | 2.79 | 8.11 | 4.29 | > 100 | 3.8 | > 100 | 2.62 | 9.51 | 2.55 | 10.2 | 2.47 | 7.55 | 3.32 | > 100 | 2.5 | 8.23
2 | Cc1cc(I)cc(CN(C)CCCN2CCCC2)c1O | 29.9 | > 100 | 15.3 | 35.6 | 23.2 | > 88.2 | 27.6 | > 80.4 | 16.3 | 41 | 20 | > 60.9 | 7.52 | 36.6 | 3.46 | 38.1 | 19.1 | 47.5 | 16.2 | 32.2
3 | O=[N+]([O-])c1ccc(Sc2c3ccccc3nc3cc(Cl)ccc23)cc1 | > 100 | > 100 |  | > 100 | > 100 | > 100 | > 100 | > 100 |  | > 100 | > 100 | > 100 |  | 68.1 |  | > 100 | > 100 | > 100 | > 100 | > 100
4 | COC(=O)C1(C)Cc2cc(OC(C)=O)c(OC(C)=O)cc2N1 (configuration not stated) | 11.6 | 29.4 | 26.3 | > 96.7 | 6.97 | 23.8 | > 61.9 | > 100 | 2.34 | 8.48 | 3.59 | 21.9 | 1.65 | 4.76 | 3.42 | > 46 | 2.64 | 12.9 | 2.98 | 11.3
5 | C=C1C(=O)O[C@H]2[C@H]1CC/C(COC(=O)NCC(C)c1ccc(CC(C)C)cc1)=C\CC[C@@]1(C)O[C@@H]21 (some centres not stated) | 6.46 | 11.8 | 1.21 | 5.48 | 0.625 | 1.27 | 3.82 | 7.95 | 0.559 | 1.17 | 0.474 | 0.909 | 0.678 | 3.6 | 0.644 | 3.61 | 0.595 | 1.27 | 2.32 | 6.68
6 | CN1/C(=C\C=C\C2=[N+](C)c3ccccc3C2(C)C)C(C)(C)c2ccccc21 | 0.0413 | 13.5 | 0.271 | 1.88 | 0.0514 | 0.948 | 0.067 | 12 | 0.216 | 1.13 | 0.229 | 3.23 | 0.194 | 4.44 | 0.176 | 12.6 | 0.387 | 7.85 | 0.55 | 5.04
7 | CCCCN(CC)CC(C(C)=O)c1c(O)c2ccccc2oc1=O (configuration not stated) |  | > 100 |  | > 100 |  | > 100 |  | > 100 |  | > 100 |  | > 100 |  | > 100 |  | > 100 |  | > 100 |  | > 100
8 | COc1ccc(OC)c(Cn2cc3c(c2-c2ccccc2)CCc2cnoc2-3)c1 | 5.75 | > 100 | 2.89 | 9.9 | 2.7 | 7.95 | 9.43 | > 100 | 6.12 | > 100 | 6.38 | > 100 | 2.62 | > 100 | 4.48 | > 100 | 4 | > 100 | 4.35 | > 100
9 | COC(=O)C(/C(=N\O)C(=O)Nc1cccc(Cl)c1C)c1cnc2ccccc2n1 (configuration not stated) |  | > 100 |  | > 100 |  | > 100 |  | > 100 |  | > 100 |  | > 100 |  | > 100 |  | > 100 |  | > 100 |  | > 100
10 | c1c[nH]c(CN2CCOCC2)n1 |  | > 100 |  | > 100 |  | > 100 |  | > 100 |  | > 100 |  | > 100 |  | > 100 |  | > 100 |  | > 100 |  | > 100
11 | C[N+](C)(C)CC1CCCCC1O (configuration not stated) |  |  |  | > 100 |  | > 100 |  |  |  | > 100 |  | > 100 |  | > 100 |  | > 100 |  | > 100 |  | > 100
12 | Cn1cc(C2=C(c3cn(C4CCN(Cc5ccccn5)CC4)c4ccccc34)C(=O)NC2=O)c2ccccc21 | 4.92 | > 100 | 0.358 | 9.74 | 3.82 | > 100 | > 70.2 | > 100 | 2.59 | 25.3 |  |  | 3.19 | > 100 | 3.75 | > 100 | 3.44 | > 100 | > 21.6 | > 100
13 | C=C1C(O)CC[C@]2(C)C1C1OC(C)(C)O[C@]13CC(=O)C(C)=C([C@H]1OC(C)(C)OC12)C3(C)C (some centres not stated) |  | > 100 |  | > 100 |  | > 100 |  | > 100 |  | > 100 |  | > 100 |  | > 100 |  | > 100 |  | > 100 |  | > 100
14 | C=C1C[C@@H]2CC[C@@]34C[C@H]5O[C@H]6[C@@H](O3)[C@H]3O[C@H](CC[C@@H]3O[C@H]6[C@@H]5O4)CC(=O)C[C@@H]3[C@@H](OC)[C@@H](C[C@H](O)CN)O[C@H]3C[C@H]3O[C@@H](CC[C@@H]1O2)C[C@@H](C)C3=C | < 0.01 | > 100 | < 0.01 | > 100 | < 0.01 | 0.0219 | < 0.01 | > 100 | < 0.01 | > 100 | 1.34 | > 100 | < 0.01 | > 100 | < 0.01 | > 100 | 0.326 | > 100 | 0.0358 | > 100
